Results reported in PMC12316928, “Synthesis and evaluation of novel thiohydantoin derivatives for antidiabetic activity using in silico in vitro and in vivo methods” (Scientific Reports, 2025).
Values after ≈ are worked out from the molar mass of the structure shown. Values joined by “and” are separate entries in the source; they are usually repeats but may differ in a detail not shown here. Identical values can stand only once. “Also recorded” adds a separate entry of the source. Like-named read-outs stand apart in the source and are kept apart here.

Columns and labels:
α-amylase = target: T1, α-amylase (Sus scrofa, UniProt P00690); experiment: α-Amylase inhibitory activity assay (DNSA method); assay type: biochemical
T1 sequence (P00690 16-511): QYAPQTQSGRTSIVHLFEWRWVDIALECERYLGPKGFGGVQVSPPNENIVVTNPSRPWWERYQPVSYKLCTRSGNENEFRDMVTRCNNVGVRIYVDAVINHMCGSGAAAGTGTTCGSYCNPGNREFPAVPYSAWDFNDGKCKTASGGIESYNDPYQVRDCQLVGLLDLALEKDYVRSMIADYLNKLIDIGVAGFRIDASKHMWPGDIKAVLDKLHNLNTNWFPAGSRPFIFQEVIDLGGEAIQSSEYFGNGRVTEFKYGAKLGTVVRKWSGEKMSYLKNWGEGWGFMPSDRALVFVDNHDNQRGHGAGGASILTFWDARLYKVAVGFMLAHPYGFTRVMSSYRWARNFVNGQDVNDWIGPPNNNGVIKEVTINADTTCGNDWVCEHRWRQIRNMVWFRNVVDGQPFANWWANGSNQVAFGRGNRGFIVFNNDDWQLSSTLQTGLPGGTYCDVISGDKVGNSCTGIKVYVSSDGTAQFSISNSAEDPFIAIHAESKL
Method: The inhibitory potential of the synthesized derivatives against α-amylase was determined using the DNSA (3,5-dinitrosalicylic acid) colorimetric method, as reported by Bernfeld[37]. The α-amylase enzyme (from Sigma-Aldrich) was prepared in 20 mM sodium phosphate buffer (pH 6.9). […] After incubation, 100 µL of DNSA reagent was added, and the mixture was heated at 85 °C for 15 min. The reaction was stopped by cooling, and the absorbance was measured at 595 nm. A blank control was prepared to adjust background absorbance, and the percentage inhibition was calculated.

[1] = DPPH free radical scavenging assay
Method: The antioxidant activity of synthesized compounds was evaluated using the DPPH free-radical scavenging assay, following the methodology outlined by[34]. This assay is based on the principle that the stable free radical DPPH undergoes a color change from deep purple to yellow upon reduction, indicating hydrogen donation from antioxidant compounds. Different concentrations (3.12, 6.25, 12.5, 25, 50, 100, and 200 µg/mL) of test compounds were prepared in methanol. A 200 µL aliquot of each concentration was mixed with 50 µL of freshly prepared DPPH solution (0.659 mM). The reaction mixtures were incubated at room temperature for 20 min in the dark. Absorbance was recorded at 510 nm using an ELISA microplate reader. Trolox was employed as the reference antioxidant, and the percentage of inhibition was calculated using the following equation:
% Inhibition = [(A0 − A1)/A0] × 100.
Where A0 is the absorbance of the control, and A1 is the absorbance of the sample[34].

[2] = target: T2, α-glucosidase (EC3.2.1.20) (Saccharomyces cerevisiae, UniProt P53341); experiment: α-Glucosidase inhibitory activity assay; assay type: biochemical; settings: for inhibition at 200 µg/mL: read-out: %Inhibition (200 µg/ml) alpha glucosidase
T2 construct: purchased Sigma-Aldrich
Method: The ability of the synthesized compounds to inhibit α-glucosidase was determined as per the method described by[35]. […] After incubation at 37 °C for 10 min, the reaction was initiated by adding 25 µL of substrate (4 mM) and further incubating at 37 °C for 20 min. The absorbance was measured at 405 nm.

Cytotoxicity MTT assay = assay type: cell-based; settings: mouse, 3T3 fibroblast cells, 48 h, Mean ± SD, n = 3, read-out: IC₅₀ cytotoxicity MTT
Method: (§1) The cytotoxic effects of the selected compounds were evaluated against the 3T3 fibroblast cell line (Sigma-Aldrich, product no. 90020107) using the MTT (3-(4,5-dimethylthiazol-2-yl)−2,5-diphenyl tetrazolium bromide) assay, following the protocol established by Mosmann[38]. A cell suspension containing 1 × 10⁵ cells per well was seeded into a 96-well plate and incubated at 37 °C with 5% CO₂ for 48 h. The cells were then treated with different concentrations of test compounds (4, 16, 63, 250, and 1000 µg/mL, dissolved in DMSO) and incubated for an additional 48 h. Following incubation, 180 µL of MTT solution (5 mg/mL in PBS) was added to each well and incubated for 4 h. The formazan crystals formed were solubilized, and absorbance was measured at 570 nm using an ELISA reader. Celecoxib was used as a positive control.

3T3 fibroblast cell line = experiment: Cytotoxicity MTT assay; assay type: cell-based; settings: for IC₅₀ cytotoxicity MTT: 48 h, Mean ± SD, n = 3
Method: as §1

[3] = tested on: STZ-induced diabetic rats; experiment: Effect on FBG, body weight and HbA1C over 6 weeks; assay type: in vivo, Sprague Dawley rats; parameters: % Reduction in FBG: concentration or dose not given beside the values
Method: (§2) Diabetes will be induced in rats (n = 6 per group) by a single intraperitoneal injection of 60-100 mg/kg body weight (BW) streptozotocin dissolved in normal saline. After 5 days of streptozotocin injection, the tail vein blood will be collected to determine the fasting blood glucose (FBG) level. Only rats with FBG over 200 mg/dl will be considered diabetic and used for further experimentation.
Diabetic Rats (n = 6 per group) will be randomly assigned to groups of six animals each in order to examine the impact of synthetic derivatives on FBG level, BW, and HbA1C. The course of treatment will last for six weeks. At the beginning of the experiment and at weekly intervals during the first 42 days of therapy, the FBG level and BW will be measured. Rats will be denied food for 12 h while fasting, but they will have unrestricted access to water. Commercial glucose oxidase kits will be used to measure the blood glucose level. Blood 7 will be collected through cardiac puncture at the end of study period and levels of HbA1C will be determined. Metformin will be used as standard for comparison purpose.

[4] = tested on: STZ-induced diabetic rats; experiment: Physiological parameters (lipid profile); assay type: in vivo, Sprague Dawley rats; settings: Fig. 1
Method: as §2
Animals will be sacrificed after […] of treatment and parameters including LDL, triglycerides, HDL cholesterol, and glucose will be determined by using KONELAB SYSTEM (Thermo Fisher Scientific, Finland) according to manufacturer’s guidelines.

[5] = tested on: STZ-induced diabetic rats; experiment: Fasting blood glucose and oral glucose tolerance test (OGTT); assay type: in vivo, Sprague Dawley rats; settings: for OGTT (after 120 min): 120 min after glucose 2.0 g/kg; for Fasting blood glucose: Table 7, mean ± SD, 5 rats per group; for FBG and OGTT reduction in words: compared to diabetic control
Method: […] After 5 days of streptozotocin injection, the tail vein blood will be collected to determine the fasting blood glucose (FBG) level. Only rats with FBG over 200 mg/dl will be considered diabetic and used for further experimentation.
This assay will be performed in animals after fasting for an overnight (12 h). Then, rats will receive a bolus of glucose (2.0 g/kg body weight) followed by test molecule or control and plasma glucose will be measured from blood collected from tail vein at 0, 30, 60, 90 and 120 min after glucose administration. Plasma glucose levels will be analyzed using commercially available glucometer kits[40].

T2 sequence (P53341 whole entry): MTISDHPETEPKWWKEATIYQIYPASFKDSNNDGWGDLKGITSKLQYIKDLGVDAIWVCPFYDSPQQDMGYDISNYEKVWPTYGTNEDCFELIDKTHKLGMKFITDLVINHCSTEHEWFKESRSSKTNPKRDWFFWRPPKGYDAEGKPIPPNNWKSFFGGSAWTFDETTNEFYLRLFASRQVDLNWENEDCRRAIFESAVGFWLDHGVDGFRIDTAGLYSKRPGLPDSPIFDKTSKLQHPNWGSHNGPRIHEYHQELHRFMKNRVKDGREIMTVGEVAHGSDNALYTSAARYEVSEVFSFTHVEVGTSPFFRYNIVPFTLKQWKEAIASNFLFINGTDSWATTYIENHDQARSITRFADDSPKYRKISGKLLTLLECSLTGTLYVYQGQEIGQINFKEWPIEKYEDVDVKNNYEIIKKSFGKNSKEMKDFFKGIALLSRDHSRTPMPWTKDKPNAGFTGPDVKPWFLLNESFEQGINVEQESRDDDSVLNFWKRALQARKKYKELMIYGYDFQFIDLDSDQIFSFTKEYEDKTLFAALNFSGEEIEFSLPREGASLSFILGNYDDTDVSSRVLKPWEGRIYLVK

| SMILES | DPPH free radical scavenging % inhibition ([1]; 3.12 µg/mL) [%] | DPPH free radical scavenging % inhibition ([1]; 6.25 µg/mL) [%] | DPPH free radical scavenging % inhibition ([1]; 12.5 µg/mL) [%] | DPPH free radical scavenging % inhibition ([1]; 25 µg/mL) [%] | DPPH free radical scavenging % inhibition ([1]; 50 µg/mL) [%] | DPPH free radical scavenging % inhibition ([1]; 100 µg/mL) [%] | DPPH free radical scavenging % inhibition ([1]; 200 µg/mL) [%] | inhibition at 200 µg/mL [2] [%] | alpha-amylase inhibition in words (α-amylase) | IC50 at 48 h (Cytotoxicity MTT assay) [mg/L] | Cytotoxicity category (3T3 fibroblast cell line) | IC₅₀ cytotoxicity MTT (3T3 fibroblast cell line) [µg/mL] | OGTT (after 120 min) [5] [mg/dL] | Fasting blood glucose [5] [mg/dL] | FBG and OGTT reduction in words [5] | alpha-glucosidase inhibition in words [2] | also measured |
| --- | --- | --- | --- | --- | --- | --- | --- | --- | --- | --- | --- | --- | --- | --- | --- | --- | --- |
| C[C@H]1O[C@H](O[C@H]2[C@H](O)[C@@H](O)[C@@H](O[C@H]3[C@H](O)[C@@H](O)C(O)O[C@@H]3CO)O[C@@H]2CO)[C@H](O)[C@@H](O)[C@@H]1N[C@H]1C=C(CO)[C@@H](O)[C@H](O)[C@H]1O (some centres unmarked) [Acarbose, reference compound] |  |  |  |  |  |  |  |  |  |  |  |  |  |  |  |  | %Inhibition alpha amylase (α-amylase; positive control Acarbose 50 µg/ml, Mean ± SD): 92.23 ± 1.08% |
| CC(=O)Nc1ccc(S(=O)(=O)N2CC(=O)NC2=S)cc1 [FP1, N-[4-(4-oxo-2-sulfanylideneimidazolidine-1-sulfonyl)phenyl]acetamide] | 12.5 ± 1.1 | 24.7 ± 1.8 | 38.1 ± 2.3 | 51.5 ± 2.7 | 58.9 ± 2.9 | 63.4 ± 3.0 | 67.3 ± 3.2 | 45.7 ± 1.12 | lack of inhibition | > 900 | negligible cytotoxicity; also recorded: Non-toxic | > 1000 ± 0.0 | 310.3 ± 10.7 | 245.9 ± 8.2 | mild but significant activity |  | IC₅₀ (concentration required to inhibit 50% of DPPH free radicals) [1]: 76.5 ± 2.9 µg/mL; BW (Day 0) ([3]; Day 0, baseline): 217.5 ± 8.3 g; FBG (Day 0) ([3]; Day 0, baseline): 282.8 ± 10.3 mg/dL; % Change in BW ([3]; Day 0 to Day 42): −8.7%; % Reduction in FBG ([3]; Day 0 to Day 42): 17.6%; BW (Day 42) ([3]; Day 42 of treatment): 198.6 ± 7.8 g; FBG (Day 42) ([3]; Day 42 of treatment): 232.9 ± 9.7 mg/dL; HbA1C ([3]; end of 6-week treatment): 8.1% and 8.1 ± 0.4%; lipid profile effect in words [4]: marginal effects |
| Cc1ccc(S(=O)(=O)N2CC(=O)NC2=S)cc1 [FP3, 1-(4-methylbenzene-1-sulfonyl)−2-sulfanylideneimidazolidin-4-one] | 9.2 ± 0.9 | 18.5 ± 1.4 | 27.9 ± 1.8 | 38.3 ± 2.1 | 45.7 ± 2.3 | 51.2 ± 2.5 | 55.8 ± 2.7 |  | lack of inhibition | 722 ± 15.3 (≈ 2670 µM) | Low cytotoxicity |  | 320.8 ± 11.3 | 255.7 ± 9.0 | minor reductions | inactive | inhibition at 200 µg/mL ([2]; sample concentration 200 µg/ml, Mean ± SD): 29.4 ± 1.08% |
| O=C1CN(S(=O)(=O)c2cc(C(=O)O)ccc2Cl)C(=S)N1 [FP7, 4-chloro-3-(4-oxo-2-sulfanylideneimidazolidine-1-sulfonyl)benzoic acid] | 7.6 ± 0.7 | 14.8 ± 1.0 | 21.5 ± 1.4 | 30.2 ± 1.8 | 39.5 ± 2.0 | 43.7 ± 2.3 | 47.2 ± 2.5 | 27.3 ± 0.91 | lack of inhibition | > 900 | negligible cytotoxicity; also recorded: Non-toxic | > 1000 ± 0.0 | 325.0 ± 11.6 | 258.2 ± 9.4 | minor reductions | inactive |  |
